US20210317140A1, “Heterocyclic Compounds and Methods of Use” (MEDIVATION TECHNOLOGIES, INC, priority 2013, published 2021)
“And” between values parts separate entries of the source, which are not always exact repeats. Identical values can stand only once.

Columns and labels:
[1] = target: T1, BTK (Homo sapiens, UniProt Q06187); assay: BTK kinase assay (HotSpot, 33P ATP); format: biochemical; settings: for BTK @ 0.01 μM (% Inh): 0.01 μM compound; for BTK @ 0.01 μM (% Inh) / BTK @ 0.1 μM (% Inh) / BTK @ 1 μM (% Inh): 10 μM ATP; for BTK @ 0.1 μM (% Inh): 0.1 μM compound; for IC50: 10 dose IC50, 10 μM ATP; for BTK @ 1 μM (% Inh): 1 μM compound
T1 construct: purchased Reaction Biology Corporation
Outline: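 In 20 mM Hepes (pH 7.5) with 10 mM MgCl2, 1 mM EGTA, 0.1 mM Na3VO4, 2 mM DTT, 0.02% Brij35, 0.02 mg/mL BSA and 1% DMSO, kinase and substrate were exposed to ten compound doses for 15–20 min.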

[2] = target: T2, PI3Kδ (Homo sapiens, UniProt O00329); assay: PI3Kδ kinase assay (HTRF, PIP3 detection); format: biochemical; settings: for PI3Kδ @ 0.01 μM (% Inh): 0.01 μM compound; for PI3Kδ @ 0.01 μM (% Inh) / PI3Kδ @ 0.1 μM (% Inh) / PI3Kδ @ 1 μM (% Inh): 10 μM ATP; for PI3Kδ @ 0.1 μM (% Inh): 0.1 μM compound; for IC50: 10 dose IC50, 10 μM ATP; for PI3Kδ @ 1 μM (% Inh): 1 μM compound
T2 construct: purchased Reaction Biology Corporation
Outline: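 PIP3 formation read by loss of energy transfer as it displaces biotin-PIP3 from a Eu anti-GST/GST-PH/streptavidin-APC complex, calibrated against PIP3 standards.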

T2 sequence (O00329 whole entry): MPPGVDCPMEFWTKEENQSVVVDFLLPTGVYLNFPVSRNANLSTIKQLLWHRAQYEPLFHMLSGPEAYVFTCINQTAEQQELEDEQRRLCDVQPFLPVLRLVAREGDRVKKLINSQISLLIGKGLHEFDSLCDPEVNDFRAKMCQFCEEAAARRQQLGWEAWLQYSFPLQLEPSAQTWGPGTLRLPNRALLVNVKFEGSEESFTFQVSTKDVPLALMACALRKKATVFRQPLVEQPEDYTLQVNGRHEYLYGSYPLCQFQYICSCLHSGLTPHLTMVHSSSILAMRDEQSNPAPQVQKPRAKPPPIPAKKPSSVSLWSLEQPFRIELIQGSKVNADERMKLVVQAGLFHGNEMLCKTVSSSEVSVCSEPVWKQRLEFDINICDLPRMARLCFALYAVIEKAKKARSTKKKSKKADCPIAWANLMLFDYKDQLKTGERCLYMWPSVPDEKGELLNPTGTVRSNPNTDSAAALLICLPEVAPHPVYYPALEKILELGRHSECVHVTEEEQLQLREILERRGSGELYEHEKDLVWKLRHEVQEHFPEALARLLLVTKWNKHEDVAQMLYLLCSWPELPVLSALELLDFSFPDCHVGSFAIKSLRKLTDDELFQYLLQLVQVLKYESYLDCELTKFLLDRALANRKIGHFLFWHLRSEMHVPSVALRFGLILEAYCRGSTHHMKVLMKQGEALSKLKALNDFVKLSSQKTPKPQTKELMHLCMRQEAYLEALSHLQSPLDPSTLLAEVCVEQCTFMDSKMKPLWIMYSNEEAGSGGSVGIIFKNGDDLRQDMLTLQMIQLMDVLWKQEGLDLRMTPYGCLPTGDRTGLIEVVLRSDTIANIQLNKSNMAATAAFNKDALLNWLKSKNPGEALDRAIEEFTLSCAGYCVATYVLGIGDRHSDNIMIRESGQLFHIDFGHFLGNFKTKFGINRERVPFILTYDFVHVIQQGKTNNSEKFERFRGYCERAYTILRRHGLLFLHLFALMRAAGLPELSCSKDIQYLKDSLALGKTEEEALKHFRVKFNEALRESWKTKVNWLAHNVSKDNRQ
T2 sequence (P27986 whole entry partner): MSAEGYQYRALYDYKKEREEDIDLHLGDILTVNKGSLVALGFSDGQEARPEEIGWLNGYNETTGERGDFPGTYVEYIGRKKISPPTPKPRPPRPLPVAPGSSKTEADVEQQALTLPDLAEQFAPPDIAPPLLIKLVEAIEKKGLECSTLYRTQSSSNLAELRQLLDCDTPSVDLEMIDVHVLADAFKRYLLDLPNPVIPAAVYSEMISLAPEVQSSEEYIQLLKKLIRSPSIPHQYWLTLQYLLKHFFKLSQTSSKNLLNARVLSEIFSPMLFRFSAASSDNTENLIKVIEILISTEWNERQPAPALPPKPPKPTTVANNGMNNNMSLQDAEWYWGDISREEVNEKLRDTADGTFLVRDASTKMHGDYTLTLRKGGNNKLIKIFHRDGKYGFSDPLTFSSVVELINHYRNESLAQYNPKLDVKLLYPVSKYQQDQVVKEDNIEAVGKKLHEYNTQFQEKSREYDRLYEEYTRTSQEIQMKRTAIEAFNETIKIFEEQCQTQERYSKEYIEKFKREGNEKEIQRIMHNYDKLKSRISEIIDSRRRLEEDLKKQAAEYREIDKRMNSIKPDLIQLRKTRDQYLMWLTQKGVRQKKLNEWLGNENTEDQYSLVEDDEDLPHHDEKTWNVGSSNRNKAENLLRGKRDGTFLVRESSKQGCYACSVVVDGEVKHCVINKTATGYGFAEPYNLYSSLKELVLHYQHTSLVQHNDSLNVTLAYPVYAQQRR
T1 sequence (Q06187 whole entry): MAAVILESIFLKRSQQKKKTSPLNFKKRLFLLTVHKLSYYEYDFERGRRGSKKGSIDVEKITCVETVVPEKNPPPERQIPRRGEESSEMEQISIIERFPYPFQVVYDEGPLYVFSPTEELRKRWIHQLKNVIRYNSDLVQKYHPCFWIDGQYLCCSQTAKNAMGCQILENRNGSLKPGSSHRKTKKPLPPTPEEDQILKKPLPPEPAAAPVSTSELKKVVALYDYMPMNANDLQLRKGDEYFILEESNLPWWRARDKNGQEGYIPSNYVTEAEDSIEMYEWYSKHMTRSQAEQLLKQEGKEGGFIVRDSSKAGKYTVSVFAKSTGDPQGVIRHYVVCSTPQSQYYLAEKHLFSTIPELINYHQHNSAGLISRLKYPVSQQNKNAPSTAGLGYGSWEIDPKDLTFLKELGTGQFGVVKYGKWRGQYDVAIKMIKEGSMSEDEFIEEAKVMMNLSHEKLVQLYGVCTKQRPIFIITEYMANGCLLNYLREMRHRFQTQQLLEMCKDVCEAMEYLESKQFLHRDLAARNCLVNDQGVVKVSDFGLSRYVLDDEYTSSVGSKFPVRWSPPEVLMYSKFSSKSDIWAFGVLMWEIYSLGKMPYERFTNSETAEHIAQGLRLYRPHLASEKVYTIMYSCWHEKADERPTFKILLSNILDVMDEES

N#Cc1cc(-c2nn(C3Cc4ccccc4C3)c3ncnc(N)c23)ccc1F [Compound No. 97, 5-[4-amino-1-(2,3-dihydro-1H-inden-2-yl)-1H-pyrazolo[3,4-d]pyrimidin-3-yl]-2-fluorobenzonitrile]
BTK @ 0.01 μM (% Inh) [1]: 11.7 % Inh
BTK @ 0.1 μM (% Inh) [1]: 14.06 % Inh
PI3Kδ @ 0.01 μM (% Inh) [2]: 24.66 % Inh
PI3Kδ @ 0.1 μM (% Inh) [2]: 29.59 % Inh

Cn1ncc2c(-c3nn(C4Cc5ccccc5C4)c4ncnc(N)c34)cccc21 [Compound No. 98, 1-(2,3-dihydro-1H-inden-2-yl)-3-(1-methyl-1H-indazol-4-yl)-1H-pyrazolo[3,4-d]pyrimidin-4-amine]
BTK @ 0.01 μM (% Inh) [1]: 8.24 % Inh
BTK @ 0.1 μM (% Inh) [1]: 12.62 % Inh
PI3Kδ @ 0.01 μM (% Inh) [2]: 14.09 % Inh
PI3Kδ @ 0.1 μM (% Inh) [2]: 19.14 % Inh

Nc1ncnc2c1c(-c1ccc3c(c1)NCCO3)nn2C1Cc2ccccc2C1 [Compound No. 99, 1-(2,3-dihydro-1H-inden-2-yl)-3-(3,4-dihydro-2H-1,4-benzoxazin-6-yl)-1H-pyrazolo[3,4-d]pyrimidin-4-amine]
BTK @ 0.01 μM (% Inh) [1]: 17.69 % Inh
BTK @ 0.1 μM (% Inh) [1]: 56.81 % Inh
IC50 [1]: 79.6 nM
PI3Kδ @ 0.01 μM (% Inh) [2]: 17.4 % Inh
PI3Kδ @ 0.1 μM (% Inh) [2]: 39.74 % Inh
IC50 [2]: 167 nM

Nc1ncnc2c1c(-c1ccc(O)c(O)c1)nn2C1CCc2ccccc2C1 (stereo not shown) [compound 1, 4-(4-amino-1-tetralin-2-yl-pyrazolo[3,4-d]pyrimidin-3-yl)benzene-1,2-diol]
BTK @ 0.1 μM (% Inh) [1]: 12.61 % Inh
PI3Kδ @ 0.1 μM (% Inh) [2]: 48.6 % Inh

COc1cc(F)cc(-c2nn(C3CCc4ccccc43)c3ncnc(N)c23)c1 (stereo not shown) [compound 4, 1-(2,3-dihydro-1H-inden-1-yl)-3-(3-fluoro-5-methoxyphenyl)-1H-pyrazolo[3,4-d]pyrimidin-4-amine]
IC50 [1]: 584 nM
IC50 [2]: 1830 nM

COc1cc(F)cc(-c2nn(C3Cc4ccccc4C3)c3ncnc(N)c23)c1 [compound 5, 1-(2,3-dihydro-1H-inden-2-yl)-3-(3-fluoro-5-methoxyphenyl)-1H-pyrazolo[3,4-d]pyrimidin-4-amine]
BTK @ 0.1 μM (% Inh) [1]: 26.26 % Inh
BTK @ 1 μM (% Inh) [1]: 76.16 % Inh
IC50 [1]: 1970 nM and 1100 nM
PI3Kδ @ 0.1 μM (% Inh) [2]: 25.0 % Inh
PI3Kδ @ 1 μM (% Inh) [2]: 54.63 % Inh
IC50 [2]: 2790 nM and 1220 nM

COc1cc(F)cc(-c2nn(C3CCc4ccccc4C3)c3ncnc(N)c23)c1 (stereo not shown) [compound 7, 3-(3-fluoro-5-methoxyphenyl)-1-(1,2,3,4-tetrahydronaphthalen-2-yl)-1H-pyrazolo[3,4-d]pyrimidin-4-amine]
IC50 [1]: 891 nM
IC50 [2]: 1340 nM

Nc1ncnc2c1c(-c1ccc(F)c(O)c1)nn2C1CCc2ccccc21 (stereo not shown) [compound 10, 5-(4-amino-1-indan-1-yl-pyrazolo[3,4-d]pyrimidin-3-yl)-2-fluoro-phenol]
BTK @ 0.1 μM (% Inh) [1]: 58.79 % Inh
PI3Kδ @ 0.1 μM (% Inh) [2]: 22.39 % Inh

Nc1ncnc2c1c(-c1cc(O)cc(F)c1)nn2C1CCCc2ccccc21 (stereo not shown) [compound 11, 3-(4-amino-1-tetralin-1-yl-pyrazolo[3,4-d]pyrimidin-3-yl)-5-fluoro-phenol]
BTK @ 0.1 μM (% Inh) [1]: 22.06 % Inh
PI3Kδ @ 0.1 μM (% Inh) [2]: 45.08 % Inh

Nc1ncnc2c1c(-c1ccc(F)c(O)c1)nn2C1CCCc2ccccc21 (stereo not shown) [compound 12, 5-(4-amino-1-tetralin-1-yl-pyrazolo[3,4-d]pyrimidin-3-yl)-2-fluoro-phenol]
BTK @ 0.1 μM (% Inh) [1]: 31.62 % Inh
PI3Kδ @ 0.1 μM (% Inh) [2]: 6.22 % Inh

Nc1ncnc2c1c(-c1ccc(O)c(F)c1)nn2C1CCc2ccccc2C1 (stereo not shown) [compound 22, 4-(4-amino-1-(1,2,3,4-tetrahydronaphthalen-2-yl)-1H-pyrazolo[3,4-d]pyrimidin-3-yl)-2-fluorophenol]
IC50 [1]: 293 nM
IC50 [2]: 39.6 nM

COc1ncc(-c2nn(C3CCc4ccccc4C3)c3ncnc(N)c23)cc1F (stereo not shown) [compound 23, 3-(5-fluoro-6-methoxypyridin-3-yl)-1-(1,2,3,4-tetrahydronaphthalen-2-yl)-1H-pyrazolo[3,4-d]pyrimidin-4-amine]
BTK @ 0.1 μM (% Inh) [1]: 15.45 % Inh
PI3Kδ @ 0.1 μM (% Inh) [2]: 23.11 % Inh

Nc1ncnc2c1c(-c1ccc(O)nc1)nn2C1CCc2ccccc2C1 (stereo not shown) [compound 24, 5-(4-amino-1-(1,2,3,4-tetrahydronaphthalen-2-yl)-1H-pyrazolo[3,4-d]pyrimidin-3-yl)pyridin-2-ol]
BTK @ 0.1 μM (% Inh) [1]: 5.45 % Inh
PI3Kδ @ 0.1 μM (% Inh) [2]: 10.3 % Inh

Nc1ncnc2c1c(-c1ccc(Cl)nc1)nn2C1CCc2ccccc2C1 (stereo not shown) [compound 25, 3-(6-chloro-3-pyridyl)-1-tetralin-2-yl-pyrazolo[3,4-d]pyrimidin-4-amine]
BTK @ 0.1 μM (% Inh) [1]: 20.21 % Inh
PI3Kδ @ 0.1 μM (% Inh) [2]: 27.39 % Inh

NC(=O)c1cccc(-c2nn(C3CCc4ccccc4C3)c3ncnc(N)c23)c1 (stereo not shown) [compound 27, 3-(4-amino-1-tetralin-2-yl-pyrazolo[3,4-d]pyrimidin-3-yl)benzamide]
BTK @ 0.1 μM (% Inh) [1]: 13.54 % Inh
PI3Kδ @ 0.1 μM (% Inh) [2]: 4.7 % Inh

NC(=O)c1ccc(-c2nn(C3CCc4ccccc4C3)c3ncnc(N)c23)cc1 (stereo not shown) [compound 28, 4-(4-amino-1-tetralin-2-yl-pyrazolo[3,4-d]pyrimidin-3-yl)benzamide]
BTK @ 0.1 μM (% Inh) [1]: 14.0 % Inh
PI3Kδ @ 0.1 μM (% Inh) [2]: 15.27 % Inh

Nc1ncnc2c1c(-c1cc(O)cc(F)c1)nn2C1CCc2ccccc21 (stereo not shown) [compound 30, 3-(4-amino-1-indan-1-yl-pyrazolo[3,4-d]pyrimidin-3-yl)-5-fluoro-phenol]
BTK @ 0.1 μM (% Inh) [1]: 35.16 % Inh
IC50 [1]: 217 nM
PI3Kδ @ 0.1 μM (% Inh) [2]: 64.19 % Inh
IC50 [2]: 13 nM

C=CC(=O)N1CC(n2nc(-c3cnc(OC)c(F)c3)c3c(N)ncnc32)Cc2cc(C)ccc21 (stereo not shown) [compound 32, 1-(3-(4-amino-3-(5-fluoro-6-methoxypyridin-3-yl)-1H-pyrazolo[3,4-d]pyrimidin-1-yl)-6-methyl-3,4-dihydroquinolin-1 (2H)-yl)prop-2-en-1-one]
BTK @ 0.1 μM (% Inh) [1]: 13.50 % Inh
IC50 [1]: 877 nM
PI3Kδ @ 0.1 μM (% Inh) [2]: 11.3 % Inh
IC50 [2]: 1490 nM

COc1ccc(-c2nn(C3CCCc4ccccc43)c3ncnc(N)c23)cc1OC (stereo not shown) [compound 33, 3-(3,4-dimethoxyphenyl)-1-(1,2,3,4-tetrahydronaphthalen-1-yl)-1H-pyrazolo[3,4-d]pyrimidin-4-amine]
BTK @ 0.1 μM (% Inh) [1]: 7.04 % Inh
PI3Kδ @ 0.1 μM (% Inh) [2]: 27.41 % Inh

COc1ccc(-c2nn(C3CCc4ccccc43)c3ncnc(N)c23)cc1OC (stereo not shown) [compound 34, 1-(2,3-dihydro-1H-inden-1-yl)-3-(3,4-dimethoxyphenyl)-1H-pyrazolo[3,4-d]pyrimidin-4-amine]
BTK @ 0.1 μM (% Inh) [1]: 23.12 % Inh
PI3Kδ @ 0.1 μM (% Inh) [2]: 51.63 % Inh

Nc1ncnc2c1c(-c1ccc(Br)c(O)c1)nn2C1CCc2ccccc21 (stereo not shown) [compound 36, 5-[4-amino-1-(2,3-dihydro-1H-inden-1-yl)-1H-pyrazolo[3,4-d]pyrimidin-3-yl]-2-bromophenol]
BTK @ 0.1 μM (% Inh) [1]: 43.28 % Inh
PI3Kδ @ 0.1 μM (% Inh) [2]: 56.42 % Inh

Nc1ncnc2c1c(-c1ccc3cc[nH]c3c1)nn2C1CCc2ccccc21 (stereo not shown) [compound 37, 1-(2,3-dihydro-1H-inden-1-yl)-3-(1H-indol-6-yl)-1H-pyrazolo[3,4-d]pyrimidin-4-amine]
BTK @ 0.1 μM (% Inh) [1]: 29.59 % Inh
PI3Kδ @ 0.1 μM (% Inh) [2]: 15.52 % Inh

Nc1ncnc2c1c(-c1ccc3cc[nH]c3c1)nn2C1CCCc2ccccc21 (stereo not shown) [compound 38, 3-(1H-indol-6-yl)-1-(1,2,3,4-tetrahydronaphthalen-1-yl)-1H-pyrazolo[3,4-d]pyrimidin-4-amine]
BTK @ 0.1 μM (% Inh) [1]: 15.94 % Inh
PI3Kδ @ 0.1 μM (% Inh) [2]: 7.33 % Inh

Nc1ncnc2c1c(-c1cc(O)cc(F)c1)nn2C1CCCc2ccc(F)cc21 (stereo not shown) [compound 41, 3-[4-amino-1-(7-fluoro-1,2,3,4-tetrahydronaphthalen-1-yl)-1H-pyrazolo[3,4-d]pyrimidin-3-yl]-5-fluorophenol]
BTK @ 0.1 μM (% Inh) [1]: 4.89 % Inh
PI3Kδ @ 0.1 μM (% Inh) [2]: 80.15 % Inh

Nc1ncnc2c1c(-c1cc(O)cc(F)c1)nn2C1Cc2cc(F)ccc2C1=O (stereo not shown) [compound 51, 2-[4-amino-3-(3-fluoro-5-hydroxyphenyl)-1H-pyrazolo[3,4-d]pyrimidin-1-yl]-5-fluoro-2,3-dihydro-1H-inden-1-one]
BTK @ 0.1 μM (% Inh) [1]: 41.05 % Inh
BTK @ 1 μM (% Inh) [1]: 82.76 % Inh
IC50 [1]: 422 nM
PI3Kδ @ 0.1 μM (% Inh) [2]: 73.20 % Inh
PI3Kδ @ 1 μM (% Inh) [2]: 98.33 % Inh
IC50 [2]: 65.7 nM
